Measured values taken from ChEMBL document CHEMBL1157661 (Bioorg Med Chem, 2010).
In brackets after ≈: the same amount, converted by molar mass.

What was measured:
[1] = target: T1, Adenosine receptor A1 (Homo sapiens) (UniProt P30542); experiment: Displacement of [3H]DPCPX from human recombinant adenosine A1 receptor expressed in CHO-A1 cell membrane at 10 uM; assay type: cell membranes
T1 sequence (whole entry): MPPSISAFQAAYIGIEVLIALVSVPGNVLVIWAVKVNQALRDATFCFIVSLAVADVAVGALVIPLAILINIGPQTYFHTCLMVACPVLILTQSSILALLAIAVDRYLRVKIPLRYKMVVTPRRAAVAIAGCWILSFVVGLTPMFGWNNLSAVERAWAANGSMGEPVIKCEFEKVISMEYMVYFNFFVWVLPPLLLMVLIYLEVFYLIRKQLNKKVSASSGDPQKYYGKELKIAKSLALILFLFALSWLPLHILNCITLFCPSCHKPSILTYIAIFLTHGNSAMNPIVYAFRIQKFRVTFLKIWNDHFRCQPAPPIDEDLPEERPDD

[2] = target: T2, Adenosine receptor A2b (Homo sapiens) (UniProt P29275); experiment: Displacement of [3H]DPCPX from human recombinant adenosine A2B receptor expressed in HEK293 cell membrane at 10 uM; assay type: cell membranes
T2 sequence (whole entry): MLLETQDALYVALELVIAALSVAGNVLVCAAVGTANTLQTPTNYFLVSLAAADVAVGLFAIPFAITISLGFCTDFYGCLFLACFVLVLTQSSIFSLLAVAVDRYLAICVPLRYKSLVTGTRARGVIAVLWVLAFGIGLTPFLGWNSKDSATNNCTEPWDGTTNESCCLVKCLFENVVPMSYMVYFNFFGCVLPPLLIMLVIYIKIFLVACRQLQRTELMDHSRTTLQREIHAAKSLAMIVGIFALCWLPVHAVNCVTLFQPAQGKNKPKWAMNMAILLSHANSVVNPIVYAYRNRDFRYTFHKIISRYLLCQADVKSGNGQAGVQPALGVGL

Adenosine receptor A1 = target: T3, Adenosine receptor A1 (Homo sapiens, UniProt P30542); experiment: Displacement of [3H]DPCPX from human recombinant adenosine A1 receptor expressed in CHO-A1 cell membrane; assay type: cell membranes
T3 sequence (P30542 whole entry): T1 sequence (whole entry)

[3] = target: T4, Adenosine receptor A3 (Homo sapiens) (UniProt P0DMS8); experiment: Displacement of [3H]NECA from human recombinant adenosine A3 receptor expressed in human HeLa cell membrane at 10 uM; assay type: cell membranes
T4 sequence (whole entry): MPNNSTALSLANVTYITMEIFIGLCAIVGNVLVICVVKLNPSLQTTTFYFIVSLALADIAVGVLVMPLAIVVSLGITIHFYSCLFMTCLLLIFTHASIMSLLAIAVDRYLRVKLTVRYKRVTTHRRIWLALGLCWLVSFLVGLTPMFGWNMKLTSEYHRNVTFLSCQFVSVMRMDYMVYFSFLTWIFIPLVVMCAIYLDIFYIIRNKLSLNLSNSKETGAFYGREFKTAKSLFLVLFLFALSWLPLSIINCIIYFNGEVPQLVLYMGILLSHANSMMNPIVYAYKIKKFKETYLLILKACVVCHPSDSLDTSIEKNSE

[4] = target: Adenosine receptor A2a (Homo sapiens) (UniProt P29274); experiment: Displacement of [3H]ZM241385 from human recombinant adenosine A2A receptor expressed in human HeLa cell membrane at 10 uM; assay type: cell membranes
[5] = Solubility in water; assay type: physicochemical
[6] = Solubility in glycerin; assay type: physicochemical
[7] = Solubility in di(ethylene glycol); assay type: physicochemical

Adenosine receptor A2a (Homo sapiens), sequence (P29274 whole entry): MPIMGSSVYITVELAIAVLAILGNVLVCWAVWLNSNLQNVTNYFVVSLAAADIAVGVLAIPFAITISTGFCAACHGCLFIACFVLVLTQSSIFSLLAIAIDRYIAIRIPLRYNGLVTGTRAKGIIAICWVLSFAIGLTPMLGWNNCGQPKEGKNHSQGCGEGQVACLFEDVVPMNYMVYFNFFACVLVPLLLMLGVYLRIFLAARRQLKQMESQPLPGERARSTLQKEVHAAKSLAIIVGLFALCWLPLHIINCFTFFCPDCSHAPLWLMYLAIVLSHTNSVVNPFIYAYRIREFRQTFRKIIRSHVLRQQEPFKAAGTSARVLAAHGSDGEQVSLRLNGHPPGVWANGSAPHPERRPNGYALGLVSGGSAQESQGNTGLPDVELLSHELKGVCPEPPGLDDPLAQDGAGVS

| inhibition [1] | inhibition [2] | Ki (Adenosine receptor A1) | inhibition [3] | inhibition [4] | solubility [5] | solubility [6] | solubility [7] | Compound |
| --- | --- | --- | --- | --- | --- | --- | --- | --- |
| 53% | 47% | 5 µM | 19% | 18% | – | – | – | C=CCCCCCCCCCOCCOCCOCCOCCn1cnc2c1c(=O)n(C)c(=O)n2C |
| 37% | 10% | – | 1% | 20% | 14 mM (≈ 4370 µg/mL) | Insoluble | 10 mM (≈ 3120 µg/mL) | COCCOCCOCc1nc2c([nH]1)c(=O)n(C)c(=O)n2C |
| 24% | 3% | – | 2% | 17% | – | – | – | Cn1c(=O)c2c(ncn2CCOCCOCCOCCN=[N+]=[N-])n(C)c1=O |
